According to patent US20190160035A1, “METHOD OF TREATMENT” (QBIOTICS LIMITED, priority 2016, published 2019):

How the values were obtained:
[1] = Example 5: adverse events (VCOG-CTCAE classification); type: in vivo, Canis lupus familiaris (dog)
Excerpt: With the exception of swelling and pain, local tissue pathology as a result of treatment (i.e. tumor necrosis) was not considered an adverse event (AE). AEs reported such as transitory post treatment lethargy, listlessness and apathy are generally considered to be the result of the powerful local inflammatory response and systemic activation of the dog's immune response during the treatment response phase. In this study, 72 AEs were identified in 14 event types (see Table 28). The majority of identified AEs (59 out of 72; 82%) were represented by the ‘mild’ VCOG-CTCAE classification Grade 1 with no intervention required. With the exception of dogs C05-T-04 and C05-T-17 (described previously), a level of minimal medical intervention was required in only 3 cases. Dog C05-T-05 was medicated with metronidazole for transient diarrhea reported on Day 14 post-treatment; dog C05-T-07 was medicated with an antibiotic course (amoxicillin/clavulanic acid) for skin pustulation on the ventral abdomen (distant to drug injection site); and dog C05-T-09 was prescribed a prophylactic antibiotic course (cephalexin) on Day 21 on observation by the referral practice of ‘inflamed and angry’ lesion edges and having an impression smear of wound surface with ‘neutrophils and round cells (without granules)’. These findings for dog C05-T-09 of neutrophil presence is perhaps not unexpected due to the mechanism of action of the drug. The dog was reported having normal demeanour at this time. With the exception of the limb swelling in dog C05-T-17 (degranulation reaction), all reported AEs were transient in nature—resolved by 24-48 h post treatment.

[2] = tested on: MCT (cutaneous and subcutaneous); assay: Example 7: treatment of MCT (repeat of Example 1), complete response and healing by time point; type: in vivo, dogs; conditions: for Complete response: Cumulative % / Complete response: Number of tumors on given study day: 11 treated tumors in 10 dogs; for Healing: Cumulative % / Healing: Number of tumor sites healed on given study day: 11 treated tumors
Protocol: The study of Example 1 was repeated. The drug used was Compound 1 formulated in 40% propylene glycol and 30 MM acetate buffer at pH 4.2.
While tumor evaluation and measurement data for 11 cases are presented, this actually represents only 10 dogs, one of which had two tumors treated consecutively (identified as cases SI-01 and SI-02). PK sampling was performed only once for this dog (SI-01).
Of the other ten tumors, nine were considered CR by day 7 (+2) and one was CR by day 14 (+2). The investigator also reported that all of these tumors remained a CR on day 28 […].
Healing was more variable for the cases, with one healed at the day 14 visit and over half the tumor sites healed by the day 28 visit. The two cases with the largest tumor volumes at day 0 (SI-04 5.6 cm^3, and SI-11 6.8 cm^3) required healing time beyond the day 28 visit, i.e., an additional four weeks for SI-04 and an additional 19.7 weeks for SI-11. For SI-11, it was noted the dog was licking the tumor site and the investigator felt it may have prolonged the healing time. The investigator believed the wound required intervention on this case that included debridement once on study day 56 followed by periodic bandage replacement.

C/C=C(\C)C(=O)O[C@@H]1[C@@H](C)[C@@]2(O)[C@H]([C@@H]3C(C)(C)[C@]13OC(=O)[C@@H](C)CC)[C@@H]1O[C@]1(CO)[C@@H](O)[C@]1(O)C(=O)C(C)=C[C@H]12 [Compound 1, 12-tigloyl-13-(2-methylbutanoyl)-6,7-epoxy-4,5,9,12,13,20-hexahydroxy-1-tigliaen-3-one]
Number of AEs identified ([1]; 18 cases, 14 event types): 72 | Share of AEs of VCOG-CTCAE Grade 1 ([1]; 59 out of 72): 82% | Apathy: VCOG-CTCAE Grade classification (no. of animals) ([1]; Grade 1): 1 (2) | Bruising at treatment site: VCOG-CTCAE Grade classification (no. of animals) ([1]; Grade 1): 1 (13) | Inappetance: VCOG-CTCAE Grade classification (no. of animals) ([1]; Grade 1): 1 (6) | Lethargy: VCOG-CTCAE Grade classification (no. of animals) ([1]; Grade 1): 1 (5) | Listless: VCOG-CTCAE Grade classification (no. of animals) ([1]; Grade 1): 1 (2) | Local swelling at treatment site: VCOG-CTCAE Grade classification (no. of animals) ([1]; Grade 1): 1 (17) | Pain associated with treatment site: VCOG-CTCAE Grade classification (no. of animals) ([1]; Grade 1): 1 (12) | Polydipsia: VCOG-CTCAE Grade classification (no. of animals) ([1]; Grade 1): 1 (1) | Ringworm: VCOG-CTCAE Grade classification (no. of animals) ([1]; Grade 1): 1 (1) | Transient Diarrhoea: VCOG-CTCAE Grade classification (no. of animals) ([1]; Grade 1): 1 (1) | Vomiting: VCOG-CTCAE Grade classification (no. of animals) ([1]; Grade 1): 1 (2) | Bruising at treatment site: VCOG-CTCAE Grade classification (no. of animals) ([1]; Grade 2): 2 (1) | Cranial abdominal pain: VCOG-CTCAE Grade classification (no. of animals) ([1]; Grade 2): 2 (1) | Inappetance: VCOG-CTCAE Grade classification (no. of animals) ([1]; Grade 2): 2 (1) | Injection site lesion antimicrobial prophylaxis: VCOG-CTCAE Grade classification (no. of animals) ([1]; Grade 2): 2 (1) | Lethargy: VCOG-CTCAE Grade classification (no. of animals) ([1]; Grade 2): 2 (1) | Local swelling at treatment site: VCOG-CTCAE Grade classification (no. of animals) ([1]; Grade 2): 2 (1) | Pain associated with treatment site: VCOG-CTCAE Grade classification (no. of animals) ([1]; Grade 2): 2 (1) | Skin pustulation: VCOG-CTCAE Grade classification (no. of animals) ([1]; Grade 2): 2 (1) | Transient Diarrhoea: VCOG-CTCAE Grade classification (no. of animals) ([1]; Grade 2): 2 (1) | Vomiting: VCOG-CTCAE Grade classification (no. of animals) ([1]; Grade 2): 2 (1) | Apathy: Incidence (%) ([1]; all dogs (18 cases)): 11.1% | Apathy: No. of dogs experiencing this event ([1]; all dogs (18 cases)): 2 | Bruising at treatment site: Incidence (%) ([1]; all dogs (18 cases)): 77.8% | Bruising at treatment site: No. of dogs experiencing this event ([1]; all dogs (18 cases)): 14 | Cranial abdominal pain: Incidence (%) ([1]; all dogs (18 cases)): 5.6% | Cranial abdominal pain: No. of dogs experiencing this event ([1]; all dogs (18 cases)): 1 | Inappetance: Incidence (%) ([1]; all dogs (18 cases)): 38.9% | Inappetance: No. of dogs experiencing this event ([1]; all dogs (18 cases)): 7 | Injection site lesion antimicrobial prophylaxis: Incidence (%) ([1]; all dogs (18 cases)): 5.6% | Injection site lesion antimicrobial prophylaxis: No. of dogs experiencing this event ([1]; all dogs (18 cases)): 1 | Lethargy: Incidence (%) ([1]; all dogs (18 cases)): 33.3% | Lethargy: No. of dogs experiencing this event ([1]; all dogs (18 cases)): 6 | Listless: Incidence (%) ([1]; all dogs (18 cases)): 11.1% | Listless: No. of dogs experiencing this event ([1]; all dogs (18 cases)): 2 | Local swelling at treatment site: Incidence (%) ([1]; all dogs (18 cases)): 100.0% | Local swelling at treatment site: No. of dogs experiencing this event ([1]; all dogs (18 cases)): 18 | Pain associated with treatment site: Incidence (%) ([1]; all dogs (18 cases)): 72.2% | Pain associated with treatment site: No. of dogs experiencing this event ([1]; all dogs (18 cases)): 13 | Polydipsia: Incidence (%) ([1]; all dogs (18 cases)): 5.6% | Polydipsia: No. of dogs experiencing this event ([1]; all dogs (18 cases)): 1 | Ringworm: Incidence (%) ([1]; all dogs (18 cases)): 5.6% | Ringworm: No. of dogs experiencing this event ([1]; all dogs (18 cases)): 1 | Skin pustulation: Incidence (%) ([1]; all dogs (18 cases)): 5.6% | Skin pustulation: No. of dogs experiencing this event ([1]; all dogs (18 cases)): 1 | Transient Diarrhoea: Incidence (%) ([1]; all dogs (18 cases)): 11.1% | Transient Diarrhoea: No. of dogs experiencing this event ([1]; all dogs (18 cases)): 2 | Vomiting: Incidence (%) ([1]; all dogs (18 cases)): 16.7% | Vomiting: No. of dogs experiencing this event ([1]; all dogs (18 cases)): 3 | Time by which reported AEs resolved post treatment ([1]; except limb swelling in dog C05-T-17): 24 to 48 h | Number of AEs of ‘mild’ VCOG-CTCAE Grade 1 (no intervention required) ([1]; out of 72 AEs): 59 | Cases requiring minimal medical intervention ([1]; with the exception of dogs C05-T-04 and C05-T-17): 3 | Response of the five cases with leakage of IVP upon injection ([2]; SI-01, SI-02, SI-04, SI-05, SI-10, on or before the day 14 visit): complete response | Complete response: Cumulative % ([2]; Study day 7 (+2)): 82% | Complete response: Number of tumors on given study day ([2]; Study day 7 (+2)): 9 | Healing: Cumulative % ([2]; Study day 14 (+2)): 9% | Healing: Number of tumor sites healed on given study day ([2]; Study day 14 (+2)): 1 | Complete response: Cumulative % ([2]; Study day 14 (+2)): 91% | Complete response: Number of tumors on given study day ([2]; Study day 14 (+2)): 1 | Healing: Cumulative % ([2]; Study day 28 (+4)): 55% | Healing: Number of tumor sites healed on given study day ([2]; Study day 28 (+4)): 5 | Healing: Cumulative % ([2]; Study day 33): 64% | Healing: Number of tumor sites healed on given study day ([2]; Study day 33): 1 | Healing: Cumulative % ([2]; Study day 42): 73% | Healing: Number of tumor sites healed on given study day ([2]; Study day 42): 1 | Healing: Cumulative % ([2]; Study day 56): 82% | Healing: Number of tumor sites healed on given study day ([2]; Study day 56): 1 | Healing: Cumulative % ([2]; Study day 166): 91% | Healing: Number of tumor sites healed on given study day ([2]; Study day 166): 1 | Change of tumor volumes after drug treatment ([2]; all tumors with the exception of SI-03): decreased in size | Course of MCT despite drug treatment ([2]; case SI-03, withdrawn after day 28 visit): continued to enlarge | Additional healing time beyond the day 28 visit ([2]; case SI-11, tumor volume 6.8 cm^3 at day 0, dog licking site, debridement day 56): 19.7 weeks | Status of the ten responding tumors on day 28 (+4) ([2]; investigator report): remained a CR | Number of tumors with a complete response (CR) during the study ([2]; of 11 tumors): Ten | Percent of tumors with a complete response (CR) during the study ([2]; of 11 tumors): 90.9% | Number of tumors considered CR by day 7 (+2) ([2]; of ten responding tumors): nine | Number of tumors CR by day 14 (+2) ([2]; of ten responding tumors, not CR by day 7): one | Number of cases healed at the day 14 visit ([2]; tumor site healing): one | Share of tumor sites healed by the day 28 visit ([2]; tumor site healing): over half
